According to ChEMBL document CHEMBL5316298, “Discovery of Amphiphilic Xanthohumol Derivatives as Membrane-Targeting Antimicrobials against Methicillin-Resistant Staphylococcus aureus” (J Med Chem, 2023):
The source made the active and inactive calls. The calls are words filed in the database; no cut-off is given here.

What was measured:
Staphylococcus aureus [1] = experiment: Antibacterial activity against methicillin-resistant Staphylococcus aureus 3 infected in KM mouse assessed as reduction in bacterial load at infection site at 10 mg/kg administered into skin infection site measured after 24 hrs relative to control; assay type: functional; parameters: scale not given: the % may be the effect or the level left
[2] = Toxicity in KM mouse infected with methicillin-resistant Staphylococcus aureus 3 assessed as histopathological abnormalities in lungs at 5 to 10 mg/kg administered into skin infection site measured after 24 hrs by H and E staining based analysis; assay type: organism-based; details: in vivo, topical_or_ocular, dose 5-10 mg/kg
Staphylococcus aureus [3] = experiment: Anti-MRSA activity against methicillin-resistant Staphylococcus aureus 3 incubated for 16 to 18 hrs in presence of 0 to 32 ug/ml phosphatidylglycerol by checkerboard broth dilution method; assay type: functional; details: time 16-18 hrs
[4] = Toxicity in KM mouse assessed as pathological changes in lungs at 20 mg/kg, sc administered into middle dorsum and measured after 24 hrs by H and E staining based analysis; assay type: organism-based; details: in vivo
[5] = Toxicity in KM mouse infected with methicillin-resistant Staphylococcus aureus 3 assessed as spleen damage at 5 to 10 mg/kg administered into skin infection site measured after 24 hrs by H and E staining based analysis; assay type: organism-based; details: in vivo, topical_or_ocular, dose 5-10 mg/kg
Staphylococcus aureus [6] = experiment: Antibacterial activity against methicillin-resistant Staphylococcus aureus 3 infected in KM mouse assessed as reduction in skin lesions/abscesses in subcutaneous tissue at 10 mg/kg administered into skin infection site measured after 24 hrs; assay type: functional, organism-based
[7] = Toxicity in KM mouse assessed as pathological changes in spleen at 20 mg/kg, sc administered into middle dorsum and measured after 24 hrs by H and E staining based analysis; assay type: organism-based; details: in vivo
[8] = Toxicity in KM mouse assessed as pathological changes in kidneys at 20 mg/kg, sc administered into middle dorsum and measured after 24 hrs by H and E staining based analysis; assay type: organism-based; details: in vivo
Staphylococcus aureus [9] = experiment: Bactericidal activity against Staphylococcus aureus ATCC 29213 at 8 times MIC measured at 1 hr by time kill assay; assay type: functional, organism-based
Staphylococcus aureus [10] = experiment: Antibacterial activity against methicillin-resistant Staphylococcus aureus clinical isolate 2 incubated for 16 to 18 hrs by CLSI-based microbroth dilution method; assay type: functional; details: time 16-18 hrs
[11] = Toxicity in KM mouse assessed as abnormalities in skin at 5 to 20 mg/kg, sc administered into middle dorsum and measured after 24 hrs; assay type: organism-based; details: in vivo, dose 5-20 mg/kg
[12] = Toxicity in KM mouse assessed as effect on albumin level at 20 mg/kg, sc administered into middle dorsum and measured after 24 hrs by routine blood test; assay type: organism-based; details: in vivo
[13] = Toxicity in KM mouse infected with methicillin-resistant Staphylococcus aureus 3 assessed as swelling of renal tubular epithelial cells with granular degeneration at 5 to 10 mg/kg administered into skin infection site measured after 24 hrs by H and E staining based analysis; assay type: organism-based; details: in vivo, topical_or_ocular, dose 5-10 mg/kg
Staphylococcus aureus [14] = experiment: Antibacterial activity against methicillin-resistant Staphylococcus aureus clinical isolate 6 incubated for 16 to 18 hrs by CLSI-based microbroth dilution method; assay type: functional; details: time 16-18 hrs
[15] = Toxicity in KM mouse infected with methicillin-resistant Staphylococcus aureus 3 assessed as liver damage at 5 to 10 mg/kg administered into skin infection site measured after 24 hrs by H and E staining based analysis; assay type: organism-based; details: in vivo, topical_or_ocular, dose 5-10 mg/kg
Staphylococcus aureus [16] = experiment: Antibacterial activity against methicillin-resistant Staphylococcus aureus clinical isolate 3 incubated for 16 to 18 hrs by CLSI-based microbroth dilution method; assay type: functional; details: time 16-18 hrs
Staphylococcus aureus [17] = experiment: Antibacterial activity against methicillin-resistant Staphylococcus aureus clinical isolate 10 incubated for 16 to 18 hrs by CLSI-based microbroth dilution method; assay type: functional; details: time 16-18 hrs
Staphylococcus aureus [18] = experiment: Antibacterial activity against methicillin-resistant Staphylococcus aureus 3 infected in KM mouse assessed as reduction in bacterial load at infection site by measuring colony forming units at 5 mg/kg administered into skin infection site measured after 24 hrs; assay type: functional
Staphylococcus aureus [19] = experiment: Bactericidal activity against methicillin-resistant Staphylococcus aureus 3 at 4 times MIC by plate colony counting method; assay type: functional, organism-based; details: time 0-8 hrs, TDE = time-dependent effect
[20] = Toxicity in KM mouse assessed as redness in skin at 40 to 80 mg/kg, sc administered into middle dorsum and measured after 24 hrs; assay type: organism-based; details: in vivo, dose 40-80 mg/kg
[21] = Toxicity in KM mouse assessed as swelling in skin at 40 to 80 mg/kg, sc administered into middle dorsum and measured after 24 hrs; assay type: organism-based; details: in vivo, dose 40-80 mg/kg
Staphylococcus aureus [22] = experiment: Antibacterial activity against Staphylococcus aureus ATCC 29213 incubated for 16 to 18 hrs by CLSI-based microbroth dilution method; assay type: functional; details: time 16-18 hrs
[23] = Toxicity in KM mouse infected with methicillin-resistant Staphylococcus aureus 3 assessed as multifocal enlargement of hepatocytes with cytoplasmic foamy swelling at 5 to 10 mg/kg administered into skin infection site measured after 24 hrs by H and E staining based analysis; assay type: organism-based; details: in vivo, topical_or_ocular, dose 5-10 mg/kg
Cell membrane [24] = experiment: Disruption of membrane integrity in methicillin-resistant Staphylococcus aureus 3 assessed as increase in intense blue fluorescence at 8 times MIC incubated for 4 hrs by DAPI/PI staining based laser confocal microscopic analysis; assay type: subcellular
[25] = Toxicity in KM mouse assessed as effect on WBC count at 20 mg/kg, sc administered into middle dorsum and measured after 24 hrs by routine blood test; assay type: organism-based; details: in vivo
Staphylococcus aureus [26] = experiment: Anti-MRSA activity against methicillin-resistant Staphylococcus aureus 3 incubated for 16 to 18 hrs in presence of 0 to 64 ug/ml peptidoglycan by checkerboard broth dilution method; assay type: functional, organism-based; details: time 16-18 hrs
[27] = Toxicity in KM mouse infected with methicillin-resistant Staphylococcus aureus 3 assessed as kidney damage at 5 to 10 mg/kg administered into skin infection site measured after 24 hrs by H and E staining based analysis; assay type: organism-based; details: in vivo, topical_or_ocular, dose 5-10 mg/kg
Cell membrane [28] = experiment: Disruption of membrane integrity in methicillin-resistant Staphylococcus aureus 3 assessed as appearance of wrinkled cell surface at 16 ug/ml incubated for 240 mins by SEM analysis; assay type: subcellular; details: dose 16.0 µg/ml
Cell membrane [29] = experiment: Disruption of membrane integrity in methicillin-resistant Staphylococcus aureus 3 assessed as increase in red fluorescence of PI incubated for 2 hrs by SYTO 9/PI staining based flow cytometry analysis; assay type: subcellular; details: dose 4-64 µg/ml
Cell membrane [30] = experiment: Disruption of membrane integrity in methicillin-resistant Staphylococcus aureus 3 assessed as increase in red fluorescence at 8 times MIC incubated for 4 hrs by DAPI/PI staining based laser confocal microscopic analysis; assay type: subcellular
Staphylococcus aureus [31] = experiment: Bactericidal activity against Staphylococcus aureus ATCC 29213 at 4 times MIC by time kill assay; assay type: functional, organism-based; details: time 0-8 hrs, TDE = time-dependent effect
Cell membrane [32] = experiment: Induction of membrane depolarization in methicillin-resistant Staphylococcus aureus 3 assessed as increase in fluorescence intensity at 8 to 16 ug/ml measured every 2 mins for 20 mins by DiSC35 dye-based fluorescence assay; assay type: subcellular; details: dose 8-16 µg/ml
[33] = Toxicity in KM mouse assessed as effect on urea level at 20 mg/kg, sc administered into middle dorsum and measured after 24 hrs by routine blood test; assay type: organism-based; details: in vivo
Cell membrane [34] = experiment: Disruption of membrane integrity in methicillin-resistant Staphylococcus aureus 3 assessed as appearance of uneven cell surface at 16 ug/ml incubated for 240 mins by SEM analysis; assay type: subcellular; details: dose 16.0 µg/ml
Staphylococcus aureus [35] = experiment: Antibacterial activity against methicillin-resistant Staphylococcus aureus clinical isolate 9 incubated for 16 to 18 hrs by CLSI-based microbroth dilution method; assay type: functional; details: time 16-18 hrs
Staphylococcus aureus [36] = experiment: Induction of ROS production in methicillin-resistant Staphylococcus aureus 3 assessed as fold increase in intracellular ROS level at 64 ug/ml incubated for 40 mins by DCFH-DA dye based fluorescence analysis relative to control; assay type: functional

## CCCN(CCC)C(=O)C[N+](C)(C)CCCCOc1ccc(/C=C/C(=O)c2c(OC)cc3c(c2O)C=CC(C)(C)O3)cc1.[Br-]
Staphylococcus aureus [1]
  Activity: 99.998%
[2]
  Activity: Non-Toxic
Staphylococcus aureus [3]
  MIC: 1 µg/mL
[4]
  Activity: Non-Toxic
[5]
  Activity: Non-Toxic
Staphylococcus aureus [6]
  Activity: Active
[7]
  Activity: Non-Toxic
[8]
  Activity: Non-Toxic
Staphylococcus aureus [9]
  Activity: Active
Staphylococcus aureus [10]
  MIC: 2 µg/mL
[11]
  Activity: Non-Toxic
[12]
  Activity: Non-Toxic
[13]
  Activity: Non-Toxic
Staphylococcus aureus [14]
  MIC: 1 µg/mL
[15]
  Activity: Non-Toxic
Staphylococcus aureus [16]
  MIC: 1 µg/mL
Staphylococcus aureus [17]
  MIC: 1 µg/mL
Staphylococcus aureus [18]
  Activity: 3 log10CFU/g
Staphylococcus aureus [19]
  Activity: Tde
[20]
  Activity: Toxic
[21]
  Activity: Toxic
Staphylococcus aureus [22]
  MIC: 1 µg/mL
[23]
  Activity: Non-Toxic
Cell membrane [24]
  Activity: Active
[25]
  Activity: Non-Toxic
Staphylococcus aureus [26]
  Activity: Active
[27]
  Activity: Non-Toxic
Cell membrane [28]
  Activity: Active
Cell membrane [29]
  Activity: Dose-Dependent Effect
Cell membrane [30]
  Activity: Active
Staphylococcus aureus [31]
  Activity: Tde
Cell membrane [32]
  Activity: Active
[33]
  Activity: Non-Toxic
Cell membrane [34]
  Activity: Active
Staphylococcus aureus [35]
  MIC: 2 µg/mL
Staphylococcus aureus [36]; dose 64 µg/ml
  fold change (FC): 7
Staphylococcus aureus [36]; dose 64.0 µg/ml
  Activity: Active
